Legend:
[1] = biological target: T1, recombinant human FLAP protein (Homo sapiens, UniProt P20292); test: FLAP binding assay (Scintillation Proximity Assay, displacement of [125I]L-691,831); conditions: recombinant human FLAP membranes, [125I]L-691,831 probe; read-out: FLAP SPA IC50
T1 construct: made in house; host or cells: Sf9 insect cells (100,000 x g membrane fraction)
T1 sequence (P20292 1-161): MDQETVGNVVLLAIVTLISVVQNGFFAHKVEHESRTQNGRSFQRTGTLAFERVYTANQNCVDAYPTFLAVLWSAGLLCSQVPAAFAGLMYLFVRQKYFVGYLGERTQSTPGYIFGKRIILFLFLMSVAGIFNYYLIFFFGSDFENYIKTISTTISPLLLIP
Experimental: Cell pellets produced from sf9 insect cells expressing recombinant human FLAP protein are resuspended in buffer A [15 mM Tris-HCl (pH 7.5), 2 mM MgCl2, 0.3 mM EDTA, 1 mM PMSF]. The cells are lysed with a Dounce homogenizer and the material is centrifuged at 10,000×g for 10 minutes. The supernatant is then collected and centrifuged at 100,000×g for 60 minutes. To prepare membrane protein for an assay, an aliquot of the 100,000×g pellet is resuspended in 1 ml of buffer A, Dounce homogenized, and finally subjected to polytron mixing (30 seconds). Membrane protein (25 μl, 5 μg) is mixed with WGA SPA beads (Amersham) and stirred for 1 h.

[2] = test system: synthesis of LTB4 in human whole blood; test: human whole blood LTB4 production inhibition assay; type: cell-based; conditions: Homo sapiens, heparinized human whole blood, calcimycin 20 μM; read-out: hWB LTB4 IC50
Experimental: Compounds are additionally tested in a human whole blood assay to determine their ability to inhibit the synthesis of LTB4 in a cellular system. Compounds are combined with heparinized human whole blood and incubated for 15 minutes at 37° C. Calcimycin (20 μM final, prepared in phosphate-buffered saline, pH 7.4) is then added and the mixture is incubated for another 30 minutes at 37° C. The samples are centrifuged for 5 min at low speed (1500×g) and the plasma layer is removed. Plasma LTB4 concentrations are then measured using an antibody-based homogenous time-resolved fluorescence method (CisBio, Bedford, Mass.).

IC50 [1] [nM]	IC50 [2] [nM]	SMILES
4	550	COc1cc(-c2nc(C3(c4ccc(-c5cnc(N)nc5)cc4)CCC3)no2)on1 [Example 33, 5-(4-{1-[5-(3-Methoxy-isoxazol-5-yl)-1,2,4-oxadiazol-3-yl]-cyclobutyl}-phenyl)-pyrimidin-2-ylamine]
7.7	780	Cc1cccc(-c2nc(C3(c4ccc(-c5cnc(N)nc5)cc4)CCC3)no2)c1 [Example 34, 5-{4-[1-(5-m-tolyl-1,2,4-oxadiazol-3-yl)-cyclobutyl]-phenyl}-pyrimidin-2-ylamine]
3.6	600	Cc1ccc(-c2nc(C3(c4ccc(-c5cnc(N)nc5)cc4)CCC3)no2)cc1 [Example 35, 5-{4-[1-(5p-Tolyl-1,2,4-oxadiazol-3-yl)-cyclobutyl]-phenyl}-pyrimidin-2-ylamine]
4.3	260	CS(=O)(=O)c1ccc(-c2nc(C3(c4ccc(-c5cnc(N)nc5)cc4)CCC3)no2)cc1 [Example 36, 5-(4-{1-[5-(4-Methanesulfonyl-phenyl)-1,2,4-oxadiazol-3-yl]-cyclobutyl}-phenyl)-pyrimidin-2-ylamine]
3.7	340	Nc1cc(-c2nc(C3(c4ccc(-c5cnc(N)nc5)cc4)CCC3)no2)ccn1 [Example 37, 5-(4-{1-[5-(2-Amino-pyridin-4-yl)-1,2,4-oxadiazol-3-yl]-cyclobutyl}-phenyl)-pyrimidin-2-ylamine]
2.4	> 5000	Nc1ncc(-c2ccc(C3(c4noc(-c5ccc(S(N)(=O)=O)cc5)n4)CCC3)cc2)cn1 [Example 38, 4-(3-{1-[4-(2-Amino-pyrimidin-5-yl)-phenyl]-cyclobutyl}-1,2,4-oxadiazol-5-yl)-benzenesulfonamide]
12	800	CS(=O)(=O)c1cccc(-c2nc(C3(c4ccc(-c5cnc(N)nc5)cc4)CCC3)no2)c1 [Example 39, 5-(4-{1-[5-(3-Methanesulfonyl-phenyl)-1,2,4-oxadiazol-3-yl]-cyclobutyl}-phenyl)-pyrimidin-2-ylamine]
4.7	2100	Nc1ncc(-c2ccc(C3(c4noc(-c5c[nH]nn5)n4)CCC3)cc2)cn1 [Example 40, 5-(4-{1-[5-(1H-1,2,3-Triazol-4-yl)-1,2,4-oxadiazol-3-yl]-cyclobutyl}-phenyl)-pyrimidin-2-ylamine]
8.1	930	N#Cc1cccc(-c2nc(C3(c4ccc(-c5cnc(N)nc5)cc4)CCC3)no2)c1 [Example 41, 3-(3-{1-[4-(2-Amino-pyrimidin-5-yl)-phenyl]-cyclobutyl}-1,2,4-oxadiazol-5-yl)-benzonitrile]
8.4	690	N#Cc1ccc(-c2nc(C3(c4ccc(-c5cnc(N)nc5)cc4)CCC3)no2)cc1 [Example 42, 4-(3-{1-[4-(2-Amino-pyrimidin-5-yl)-phenyl]-cyclobutyl}-1,2,4-oxadiazol-5-yl)-benzonitrile]
3.2	230	Nc1ncc(-c2ccc(C3(c4noc(-c5cccc(O)c5)n4)CCC3)cc2)cn1 [Example 43, 3-(3-{1-[4-(2-Amino-pyrimidin-5-yl)-phenyl]-cyclobutyl}-1,2,4-oxadiazol-5-yl)-phenol]
3.1	75	Nc1ncc(-c2ccc(C3(c4noc(-c5ccc(O)cc5)n4)CCC3)cc2)cn1 [Example 44, 4-(3-{1-[4-(2-Amino-pyrimidin-5-yl)-phenyl]-cyclobutyl}-1,2,4-oxadiazol-5-yl)-phenol]
7.9	950	Nc1ncc(-c2ccc(C3(c4noc(-c5cccc(Cl)c5)n4)CCC3)cc2)cn1 [Example 45, 5-(4-{1-[5-(3-Chloro-phenyl)-1,2,4-oxadiazol-3-yl]-cyclobutyl}-phenyl)-pyrimidin-2-ylamine]
7.5	1500	Nc1ncc(-c2ccc(C3(c4noc(-c5ccc(Cl)cc5)n4)CCC3)cc2)cn1 [Example 46, 5-(4-{1-[5-(4-Chloro-phenyl)-1,2,4-oxadiazol-3-yl]-cyclobutyl}-phenyl)-pyrimidin-2-ylamine]
15	2400	Nc1ncc(-c2ccc(C3(c4noc(-c5cccc(S(N)(=O)=O)c5)n4)CCC3)cc2)cn1 [Example 47, 3-(3-{1-[4-(2-Amino-pyrimidin-5-yl)-phenyl]-cyclobutyl}-1,2,4-oxadiazol-5-yl)-benzenesulfonamide]
2.5	430	COc1ccc(-c2nc(C3(c4ccc(-c5cnc(N)nc5)cc4)CCC3)no2)cc1 [Example 48, 5-(4-{1-[5-(4-Methoxy-phenyl)-1,2,4-oxadiazol-3-yl]-cyclobutyl}-phenyl)-pyrimidin-2-ylamine]
3.7	660	COc1cccc(-c2nc(C3(c4ccc(-c5cnc(N)nc5)cc4)CCC3)no2)c1 [Example 49, 5-(4-{1-[5-(3-Methoxy-phenyl)-1,2,4-oxadiazol-3-yl]-cyclobutyl}-phenyl)-pyrimidin-2-ylamine]
4.4	490	COc1ccc(-c2nc(C3(c4ccc(-c5cnc(N)nc5)cc4)CCC3)no2)cc1OC [Example 50, 5-(4-{1-[5-(3,4-Dimethoxy-phenyl)-1,2,4-oxadiazol-3-yl]-cyclobutyl}-phenyl)-pyrimidin-2-ylamine]
7	1000	Nc1ncc(-c2ccc(C3(c4noc(-c5ccc(F)cc5)n4)CCC3)cc2)cn1 [Example 51, 5-(4-{1-[5-(4-Fluoro-phenyl)-1,2,4-oxadiazol-3-yl]-cyclobutyl}-phenyl)-pyrimidin-2-ylamine]
4.3	780	Nc1ncc(-c2ccc(C3(c4noc(-c5cccc(F)c5)n4)CCC3)cc2)cn1 [Example 52, 5-(4-{1-[5-(3-Fluoro-phenyl)-1,2,4-oxadiazol-3-yl]-cyclobutyl}-phenyl)-pyrimidin-2-ylamine]
6.2	580	Cc1ccc(-c2nc(C3(c4ccc(-c5cnc(N)nc5)cc4)CCC3)no2)cc1Cl [Example 53, 5-(4-{1-[5-(3-Chloro-4-methyl-phenyl)-1,2,4-oxadiazol-3-yl]-cyclobutyl}-phenyl)-pyrimidin-2-ylamine]
15	1200	CC(C)(C)c1ccc(-c2nc(C3(c4ccc(-c5cnc(N)nc5)cc4)CCC3)no2)cc1 [Example 54, 5-(4-{1-[5-(4-tert-Butyl-phenyl)-1,2,4-oxadiazol-3-yl]-cyclobutyl}-phenyl)-pyrimidin-2-ylamine]
13	1100	Nc1ncc(-c2ccc(C3(c4noc(-c5ccc(Cl)c(Cl)c5)n4)CCC3)cc2)cn1 [Example 55, 5-(4-{1-[5-(3,4-Dichloro-phenyl)-1,2,4-oxadiazol-3-yl]-cyclobutyl}-phenyl)-pyrimidin-2-ylamine]
8.4	990	Nc1ncc(-c2ccc(C3(c4noc(-c5ccnc(Cl)c5)n4)CCC3)cc2)cn1 [Example 56, 5-(4-{1-[5-(2-Chloro-pyridin-4-yl)-1,2,4-oxadiazol-3-yl]-cyclobutyl}-phenyl)-pyrimidin-2-ylamine]
1.8	45	Cn1nccc1-c1nc(C2(c3ccc(-c4cnc(N)nc4)cc3)CCC2)no1 [Example 57, 5-(4-{1-[5-(2-methyl-2H-pyrazol-3-yl)-1,2,4-oxadiazol-3-yl]-cyclobutyl}-phenyl)-pyrimidin-2-ylamine]
2	> 5000	Cc1cc(C)c(-c2nc(C3(c4ccc(-c5cnc(N)nc5)cc4)CCC3)no2)c(=O)[nH]1 [Example 58, 3-(3-{1-[4-(2-Amino-pyrimidin-5-yl)-phenyl]-cyclobutyl}-1,2,4-oxadiazol-5-yl)-4,6-dimethyl-1H-pyridin-2-one]
5.1	130	Nc1ncc(-c2ccc(C3(c4noc(-c5ccc(C(=O)N6CCC(F)(F)CC6)nc5)n4)CCC3)cc2)cn1 [Example 59, [5-(3-{1-[4-(2-amino-pyrimidin-5-yl)-phenyl]-cyclobutyl}-1,2,4-oxadiazol-5-yl)-pyridin-2-yl]-(4,4-difluoro-piperidin-1-yl)-methanone]
4.7	150	Nc1ncc(-c2ccc(C3(c4noc(-c5ccc(C(=O)N6CCC(O)C6)nc5)n4)CCC3)cc2)cn1 (stereo not shown) [Example 60, [5-(3-{1-[4-(2-Amino-pyrimidin-5-yl)-phenyl]-cyclobutyl]-1,2,4-oxadiazol-5-yl)-pyridin-2-yl]-(3-hydroxy-pyrrolidin-1-yl)-methanone]
1.5	53	CN(CCO)c1cnc(-c2nc(C3(c4ccc(-c5cnc(N)nc5)cc4)CCC3)no2)cn1 [Example 61, 2-{[5-(3-{1-[4-(2-amino-pyrimidin-5-yl)-phenyl]-cyclobutyl}-1,2,4-oxadiazol-5-yl)-pyrazin-2-yl]-methyl-amino}-ethanol]

Reference: patent US8580829B2 (Boehringer Ingelheim International GmbH, priority 2010, dated 2013)
